According to ChEMBL document CHEMBL1142501, “PASS-assisted exploration of antidepressant activity of 1,3,4-trisubstituted-beta-lactam derivatives” (Bioorg Med Chem Lett, 2008):
The source made the active and inactive calls. The rule behind the calls is not given here.

Tests used:
Format in all cases: functional, organism-based
[1] = system: Mus musculus; test: Antidepressant activity against dark-induced depression in Albino Swiss mouse assessed as decrease in immobility period at 20 mg/kg, ip once daily for 4 days and 30 mins before test on day 5 by forced swimming test; parameters: dose 20 mg/kg
[2] = system: Mus musculus; test: Antidepressant activity against dark-induced depression in Albino Swiss mouse assessed as increase in brain serotonin level at 20 mg/kg, ip once daily for 4 days and 30 mins before test on day 5; parameters: dose 20 mg/kg
[3] = system: Mus musculus; test: Antidepressant activity against dark-induced depression in Albino Swiss mouse assessed as decrease in immobility period at 30 mg/kg, ip once daily for 4 days and 30 mins before test on day 5 by forced swimming test; parameters: dose 30 mg/kg
[4] = system: Mus musculus; test: Antidepressant activity against dark-induced depression in Albino Swiss mouse assessed as decrease in immobility period at 15 mg/kg, ip once daily for 4 days and 30 mins before test on day 5 by forced swimming test; parameters: dose 15 mg/kg
[5] = system: Mus musculus; test: Antidepressant activity against dark-induced depression in Albino Swiss mouse assessed as increase in brain serotonin level at 15 mg/kg, ip once daily for 4 days and 30 mins before test on day 5; parameters: dose 15 mg/kg

Row | SMILES | Activity [1] | Activity [2] | Activity [3] | Activity [4] | Activity [5]
1 | CNCCC(Oc1ccc(C(F)(F)F)cc1)c1ccccc1 (stereo not given) | Active | Active |  |  | 
2 | COc1ccc([C@@H]2[C@@H]([C@@H]3C=CC[C@@H]4C(=O)N(c5ccccc5)C(=O)[C@H]34)C(=O)N2c2ccccc2)cc1 |  | Active | Active | Active | Active
3 | O=C1C=CC(=O)[C@H]2CC=C[C@@H]([C@H]3C(=O)N(C4CCCCC4)[C@H]3c3ccccc3)[C@@H]12 |  |  | Active | Active | Active
4 | Cc1ccc(N2C(=O)[C@@H]3[C@H]([C@H]4C(=O)N(C5CCCCC5)[C@H]4c4ccc(Cl)cc4)C=CC[C@@H]3C2=O)cc1 |  |  | inactive | inactive | inactive
5 | O=C1OC(=O)[C@H]2CC=C[C@@H]([C@H]3C(=O)N(c4ccccc4)[C@@H]3c3ccccc3)[C@@H]12 |  |  | Active | Active | Active
